Where two headings read alike, the source gives them in different places.

The target of data set [1] is T1, human type PPAR α ligand-binding domain fused with yeast transcription factor DNA-binding domain (Homo sapiens, UniProt Q07869).
T1 sequence (Q07869 239-466 limits assumed): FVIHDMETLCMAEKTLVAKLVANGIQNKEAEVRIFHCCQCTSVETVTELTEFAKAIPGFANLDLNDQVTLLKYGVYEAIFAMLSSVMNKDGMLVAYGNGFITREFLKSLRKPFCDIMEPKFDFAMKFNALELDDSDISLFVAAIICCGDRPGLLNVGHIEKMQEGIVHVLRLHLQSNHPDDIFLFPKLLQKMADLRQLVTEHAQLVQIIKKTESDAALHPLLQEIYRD
Briefly: Test of transactivation on peroxisome proliferator-activated receptor α (GAL4 DNA-binding domain/PPAR ligand-binding domain reporter in CHO cells).
Method: (§1) Test of Transactivation on Peroxisome Proliferator-activated Receptors α and γ
(§2) After 24 hours, CAT activity and β-galactosidase activity were measured.

The target in data set [2] is T2, human type PPAR γ ligand-binding domain fused with yeast transcription factor DNA-binding domain (Homo sapiens, UniProt P37231).
T2 sequence (P37231 238-503 limits assumed): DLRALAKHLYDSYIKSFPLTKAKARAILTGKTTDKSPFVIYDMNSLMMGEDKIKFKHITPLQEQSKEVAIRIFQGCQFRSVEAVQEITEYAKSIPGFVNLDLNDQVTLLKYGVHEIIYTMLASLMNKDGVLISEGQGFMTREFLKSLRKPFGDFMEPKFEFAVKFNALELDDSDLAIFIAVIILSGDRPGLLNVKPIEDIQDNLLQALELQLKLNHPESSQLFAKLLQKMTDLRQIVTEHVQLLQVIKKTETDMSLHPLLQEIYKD
The experiment in a line: Test of transactivation on peroxisome proliferator-activated receptor γ (GAL4 DNA-binding domain/PPAR ligand-binding domain reporter in CHO cells).
Method: as §1, §2

Regarding `COc1ccc(CC2SC(=O)NC2=O)cc1C(=O)NCc1ccc(OCc2ccccc2)cc1` (stereo not drawn) [Example 1], the melting point was in the range of 131 to 132.5 °C. Further, a half-maximal effect in data set [1] (EC50) was put at 440 nM.
In the case of `COc1ccc(CC2SC(=O)NC2=O)cc1C(=O)NCc1ccc(-c2ccccc2)cc1` (stereo not drawn) [Example 2, N-[(Biphenyl-4-yl)Methyl]-5-[(2.4-Dioxothiazolidin-5-yl)Methyl]-2-Methloybenzamide], the melting point is 170.5 to 172 °C. The molecule further yielded an EC50 in data set [2] of 6800 nM. This molecule yielded a 50% effective concentration (EC50) in data set [1] of 630 nM.
Regarding `CCCCC/C=C\C/C=C\C=C\[C@@H](O)C/C=C\CCCC(=O)O` [(8S)-HETE, reference compound], in data set [1] (read-out: Transactivation action PPARα EC50, CHO cells, 24 hours, CAT activity with β-galactosidase internal standard), the EC50 was 1300 nM.
On to `COc1ccc(CC2SC(=O)NC2=O)cc1C(=O)NCc1ccc(Oc2ccccc2)cc1` (stereo not drawn) (hydrate or solvate) [Example 3], for which the melting point lay within 87 to 89 °C.
Consider `COc1ccc(CC2SC(=O)NC2=O)cc1C(=O)NCc1ccc(Oc2ccccc2)cc1` (stereo not drawn) [Example 3], for which the EC50 in data set [2] and in data set [1] was 240 nM throughout.

Values taken from patent publication US6734199B1, “Substituted benzylthiazolidine-2, 4-dione derivatives” (Kyorin Pharmaceutical Co., Ltd., priority 1999, dated 2004).
